Measurements reported in article PMC5590943, “Pharmacological characterisation of S 47445, a novel positive allosteric modulator of AMPA receptors” (PLoS ONE, 2017).

Assays:
[1] = tested on: NMDA receptors; assay: NMDA-evoked currents, oocytes injected with rat cortex poly(A+) mRNA; settings: n = 3
[2] = tested on: Adenylyl cyclase (stimulated); assay: Enzyme and cell-based assay, ATP (0.5 mM) / forskolin (10 μM)
[3] = target: T1, GluA1flop/GluA2flip AMPA receptors (Homo sapiens, UniProt P42261+P42262, Q607R); assay: 10 μM glutamate-evoked currents in Xenopus laevis oocytes expressing GluA1flop/GluA2flip (repetitive pulses, GYKI52466); format: cell-based; settings: for EC50: n = 3
T1 construct: host or cells: Xenopus laevis oocytes
Protocol: (§1) Compounds were tested by bath application.
To test the inhibition, the selective AMPA receptor antagonist GYKI52446 was used from 10 to 1000 μM on the potentiation caused by S 47445 (1 μM).
EC50 were determined either using Matlab (Mathworks inc., Natick, USA) or SAS v9.2 (SAS Institute inc., Cary, USA) softwares. To have a comparative value between the tested drugs when EC50 could not be determined (absence of plateau at high concentrations), the EC2X was determined. EC2X corresponds to the concentrations of the drug responsible for a two-fold increase in the amplitude of the current.

[4] = tested on: BZD (central); assay: Binding assay, [3H]flunitrazepam
[5] = tested on: CA3-CA1 hippocampal synapses; design: method as in PMID 28603025; settings: cited from earlier work
[6] = target: AMPA/Kainate chimerae GluA1(K2S1) (Homo sapiens, UniProt P42261, A392I/A426D/A443L/A444R/A447S/A473Q/A536S/C542Y/D385S/D386Q/D417E/D470A/D533N/DEL395-402/E430Y/E441D/E457R/E501K/E538D/F388G/F429L/F545L/G479R/G484H/H449I/I446L/I458L/I518Y/I548L/INS382DPASGLNM/INS391N/INS555VIA/K448T/K472G/K519R/K523G/K525N/L422F/L456I/L497Y/M421L/M517L/N383T/N425S/N427K/P469D/Q405S/Q428P/Q522N/R455E/R467Q/R485K/S453T/S460E/S511T/S524T/T408S/T471N/T494A/V389K/V404L/V440I/V450L/V482I/V488L/V544L/V552C/Y381T/Y409L/Y435F/Y452F/Y483D/Y537P); assay: Glutamate-evoked current in oocytes expressing AMPA/Kainate chimera; settings: n = 5
[7] = tested on: K^+ATP channel; assay: Binding assay, [3H]glibenclamide
[8] = tested on: NMDA; assay: Binding assay, [3H]CGP 39653, rat cerebral cortex membranes
[9] = tested on: Androgen (h) (AR); assay: Binding assay, [3H]methyltrienolone
[10] = tested on: ATPase (Na+/K+); assay: Enzyme and cell-based assay, ATP (2 mM)
[11] = tested on: recombinant human AMPA receptors (GluA1, GluA2 and GluA4 flip and flop variants); assay: Glutamate-evoked currents, oocytes, across GluA recombinants; format: cell-based; settings: all tested subtypes except GluA4 flop; read-out: EC50 values among most GluA recombinants
Protocol: as §1

[12] = tested on: mature form of BDNF; design: method as in PMID 7718245; settings: aged rats, from the dose of 1 mg/kg; cited from earlier work
[13] = Solubility noted in co-crystallization experiments with GluA2; format: physicochemical; settings: prevented co-crystallization with GluA2
[14] = tested on: Y (non-selective); assay: Binding assay, [3H]NPY
[15] = tested on: rat primary cortical cell cultures; assay: LDH release toxicity assay on rat primary cortical cell cultures; settings: S 47445 10 μM
[16] = tested on: I1; assay: Binding assay, [3H]clonidine (+ 10 μM RX821002)
[17] = target: Estrogen a (h) (ERa) (Homo sapiens, UniProt P03372); assay: Binding assay, fluormone ES2
[18] = target: EGFR kinase (h) (Homo sapiens, UniProt P00533); assay: Enzyme and cell-based assay, ATP + biotinyl peptide (0.1 μM)
[19] = tested on: Phospholipase C; assay: Enzyme and cell-based assay, [3H]PIP2 (0.3 mM)
[20] = tested on: kainate receptors; assay: Kainate-evoked currents, oocytes injected with rat cortex poly(A+) mRNA; settings: n = 3
[21] = target: GluA1flop/GluA2flip (GluA1o/2i) AMPA receptors (Homo sapiens, UniProt P42261+P42262, Q607R); assay: Whole cell patch clamp recordings in transiently transfected HEK-293 cells; settings: 0.1 μM S 47445
[22] = tested on: SK^+Ca channel; assay: Binding assay, [125I]apamin
[23] = tested on: GABA (non-selective); assay: Binding assay, [3H]GABA
[24] = tested on: PDE4 (h); assay: Enzyme and cell-based assay, [3H]cAMP + cAMP (1 μM)

T1 sequence (P42261 19-906): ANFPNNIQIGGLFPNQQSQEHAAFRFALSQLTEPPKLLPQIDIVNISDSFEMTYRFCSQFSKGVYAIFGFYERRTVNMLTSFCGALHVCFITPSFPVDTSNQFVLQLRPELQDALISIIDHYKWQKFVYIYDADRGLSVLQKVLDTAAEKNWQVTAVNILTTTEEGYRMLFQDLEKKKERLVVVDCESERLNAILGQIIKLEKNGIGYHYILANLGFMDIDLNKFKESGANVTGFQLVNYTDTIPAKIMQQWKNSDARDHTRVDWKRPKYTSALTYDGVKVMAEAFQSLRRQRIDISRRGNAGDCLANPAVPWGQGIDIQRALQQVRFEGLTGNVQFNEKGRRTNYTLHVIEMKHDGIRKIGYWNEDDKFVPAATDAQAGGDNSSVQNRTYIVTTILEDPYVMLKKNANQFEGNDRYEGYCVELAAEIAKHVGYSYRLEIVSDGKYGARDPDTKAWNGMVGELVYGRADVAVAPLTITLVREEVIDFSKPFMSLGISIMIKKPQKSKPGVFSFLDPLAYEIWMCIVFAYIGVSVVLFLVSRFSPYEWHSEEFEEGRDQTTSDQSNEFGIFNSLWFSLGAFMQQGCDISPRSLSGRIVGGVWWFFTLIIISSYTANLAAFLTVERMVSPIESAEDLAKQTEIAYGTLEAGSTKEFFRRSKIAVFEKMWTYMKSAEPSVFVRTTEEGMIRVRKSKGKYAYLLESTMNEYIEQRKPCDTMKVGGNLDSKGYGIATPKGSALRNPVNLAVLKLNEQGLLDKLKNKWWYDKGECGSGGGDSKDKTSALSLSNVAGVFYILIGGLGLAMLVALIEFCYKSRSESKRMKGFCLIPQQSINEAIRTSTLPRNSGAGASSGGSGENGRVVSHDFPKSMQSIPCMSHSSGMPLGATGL
T1 sequence (P42262 22-883 isoform P42262-2 Q607R limits assumed): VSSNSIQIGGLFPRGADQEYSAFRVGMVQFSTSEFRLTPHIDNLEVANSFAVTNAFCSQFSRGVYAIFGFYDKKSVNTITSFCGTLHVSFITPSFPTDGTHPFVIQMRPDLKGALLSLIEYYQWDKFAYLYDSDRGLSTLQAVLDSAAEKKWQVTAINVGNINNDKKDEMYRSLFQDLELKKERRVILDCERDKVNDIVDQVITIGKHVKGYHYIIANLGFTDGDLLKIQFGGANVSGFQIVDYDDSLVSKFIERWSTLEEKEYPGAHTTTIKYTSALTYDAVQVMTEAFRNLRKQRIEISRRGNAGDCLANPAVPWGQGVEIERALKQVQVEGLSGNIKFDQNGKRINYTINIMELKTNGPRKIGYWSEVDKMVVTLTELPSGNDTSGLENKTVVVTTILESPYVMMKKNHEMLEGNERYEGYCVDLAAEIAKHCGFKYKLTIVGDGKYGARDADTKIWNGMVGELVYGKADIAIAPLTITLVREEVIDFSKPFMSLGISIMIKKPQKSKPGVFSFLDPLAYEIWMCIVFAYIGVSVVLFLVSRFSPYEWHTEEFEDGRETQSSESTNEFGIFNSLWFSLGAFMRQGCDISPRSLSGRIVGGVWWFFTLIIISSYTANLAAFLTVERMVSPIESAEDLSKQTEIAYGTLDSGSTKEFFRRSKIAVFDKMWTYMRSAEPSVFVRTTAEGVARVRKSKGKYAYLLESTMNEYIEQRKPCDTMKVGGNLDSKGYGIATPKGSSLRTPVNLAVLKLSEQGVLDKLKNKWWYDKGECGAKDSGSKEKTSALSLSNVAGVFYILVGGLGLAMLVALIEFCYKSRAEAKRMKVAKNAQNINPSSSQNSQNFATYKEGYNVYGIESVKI
Sequence of Estrogen a (h) (ERa) (P03372 whole entry): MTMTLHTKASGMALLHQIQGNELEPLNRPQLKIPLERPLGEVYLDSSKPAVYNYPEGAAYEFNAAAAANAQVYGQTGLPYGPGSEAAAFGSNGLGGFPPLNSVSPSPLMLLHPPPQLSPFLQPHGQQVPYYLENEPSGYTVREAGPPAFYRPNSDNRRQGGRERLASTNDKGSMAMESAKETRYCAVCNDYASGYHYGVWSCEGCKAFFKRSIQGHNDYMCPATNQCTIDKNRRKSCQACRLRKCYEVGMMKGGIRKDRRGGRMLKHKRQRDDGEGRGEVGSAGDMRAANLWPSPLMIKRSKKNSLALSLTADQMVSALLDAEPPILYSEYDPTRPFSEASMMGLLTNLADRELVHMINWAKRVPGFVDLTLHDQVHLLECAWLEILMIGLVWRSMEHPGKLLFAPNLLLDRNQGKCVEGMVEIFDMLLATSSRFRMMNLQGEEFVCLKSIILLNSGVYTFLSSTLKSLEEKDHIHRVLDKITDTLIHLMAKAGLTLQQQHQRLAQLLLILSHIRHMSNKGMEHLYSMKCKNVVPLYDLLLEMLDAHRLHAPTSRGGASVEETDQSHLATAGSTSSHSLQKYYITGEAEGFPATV
Sequence of GluA1flop/GluA2flip (GluA1o/2i) AMPA receptors (P42261 19-906): as the sequence (P42261 19-906) above
Sequence of GluA1flop/GluA2flip (GluA1o/2i) AMPA receptors (P42262 25-883 isoform P42262-2 Q607R): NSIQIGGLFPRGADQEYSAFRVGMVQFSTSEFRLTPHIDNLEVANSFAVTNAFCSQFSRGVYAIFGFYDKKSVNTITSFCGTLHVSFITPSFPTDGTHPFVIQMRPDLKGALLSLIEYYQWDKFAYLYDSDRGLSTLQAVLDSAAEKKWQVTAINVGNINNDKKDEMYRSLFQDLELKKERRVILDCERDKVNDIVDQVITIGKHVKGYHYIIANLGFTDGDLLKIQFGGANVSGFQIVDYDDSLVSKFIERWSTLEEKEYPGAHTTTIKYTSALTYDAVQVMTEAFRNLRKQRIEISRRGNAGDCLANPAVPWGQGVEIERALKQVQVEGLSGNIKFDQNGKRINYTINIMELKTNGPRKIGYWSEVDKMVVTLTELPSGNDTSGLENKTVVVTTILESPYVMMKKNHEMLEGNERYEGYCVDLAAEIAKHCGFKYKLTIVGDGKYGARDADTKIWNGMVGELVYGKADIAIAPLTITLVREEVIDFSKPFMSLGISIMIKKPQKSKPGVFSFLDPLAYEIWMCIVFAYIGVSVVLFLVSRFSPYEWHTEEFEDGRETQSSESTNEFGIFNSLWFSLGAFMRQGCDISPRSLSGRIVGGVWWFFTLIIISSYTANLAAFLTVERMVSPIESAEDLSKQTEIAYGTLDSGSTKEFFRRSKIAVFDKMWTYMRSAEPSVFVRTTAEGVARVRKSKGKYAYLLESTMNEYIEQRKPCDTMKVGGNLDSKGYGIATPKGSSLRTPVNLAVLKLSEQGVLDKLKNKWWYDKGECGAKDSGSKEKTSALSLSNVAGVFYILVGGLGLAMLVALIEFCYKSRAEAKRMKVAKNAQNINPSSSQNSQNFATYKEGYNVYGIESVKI
Sequence of EGFR kinase (h) (P00533 25-1210): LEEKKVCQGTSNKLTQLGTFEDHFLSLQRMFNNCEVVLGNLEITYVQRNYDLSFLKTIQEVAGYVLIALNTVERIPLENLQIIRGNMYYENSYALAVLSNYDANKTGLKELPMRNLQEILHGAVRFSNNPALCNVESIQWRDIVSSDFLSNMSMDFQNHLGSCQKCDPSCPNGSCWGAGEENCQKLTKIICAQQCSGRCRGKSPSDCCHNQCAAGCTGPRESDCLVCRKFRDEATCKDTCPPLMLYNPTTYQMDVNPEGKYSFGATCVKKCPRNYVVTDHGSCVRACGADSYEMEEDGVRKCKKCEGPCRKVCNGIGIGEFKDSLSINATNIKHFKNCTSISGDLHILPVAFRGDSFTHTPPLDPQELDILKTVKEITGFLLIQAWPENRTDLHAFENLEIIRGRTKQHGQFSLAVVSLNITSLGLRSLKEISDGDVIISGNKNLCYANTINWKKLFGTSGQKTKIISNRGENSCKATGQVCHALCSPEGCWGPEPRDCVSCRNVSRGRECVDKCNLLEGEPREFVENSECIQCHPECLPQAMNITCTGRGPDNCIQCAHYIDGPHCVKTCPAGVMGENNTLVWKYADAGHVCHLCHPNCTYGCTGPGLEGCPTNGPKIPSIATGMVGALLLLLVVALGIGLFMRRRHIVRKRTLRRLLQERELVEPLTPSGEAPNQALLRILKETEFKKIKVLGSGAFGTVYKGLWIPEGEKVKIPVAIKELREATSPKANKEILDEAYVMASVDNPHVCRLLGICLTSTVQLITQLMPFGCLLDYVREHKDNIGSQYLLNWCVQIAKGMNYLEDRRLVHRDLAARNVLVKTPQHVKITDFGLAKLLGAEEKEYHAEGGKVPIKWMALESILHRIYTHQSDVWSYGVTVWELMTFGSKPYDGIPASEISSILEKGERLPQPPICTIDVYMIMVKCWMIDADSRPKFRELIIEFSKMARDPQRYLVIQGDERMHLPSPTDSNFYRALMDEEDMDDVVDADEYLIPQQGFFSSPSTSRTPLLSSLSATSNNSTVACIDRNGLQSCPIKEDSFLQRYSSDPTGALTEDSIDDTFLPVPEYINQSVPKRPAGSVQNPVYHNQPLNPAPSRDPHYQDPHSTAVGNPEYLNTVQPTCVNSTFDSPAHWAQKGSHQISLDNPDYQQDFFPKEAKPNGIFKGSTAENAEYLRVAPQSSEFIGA

O=C1c2cc3nnn(CCc4cccc(F)c4)c(=O)c3cc2OCN1C1CC1 [S 47445, 8-cyclopropyl-3-[2-(3-fluorophenyl)ethyl]-7,8-dihydro-3H-[1,3]oxazino[6,5-g][1,2,3]benzotriazine-4,9-dione]
Effect at NMDA-evoked currents [1]: absence of effect
% Inhibition of control specific binding ([2]; S 47445 1.0E-05 M): -21%
% Inhibition of control specific binding ([2]; S 47445 1.0E-07 M): 6%
EC50 ([3]; EC50 of potentiation in absence of GYKI52466, 10 μM glutamate): 3.23 ± 0.5 µM
EC50 ([3]; EC50 of potentiation in presence of 100μM of GYKI52466, 10 μM glutamate): 1.99 ± 0.3 µM
Effect on glutamate-evoked currents with repetitive glutamate pulses ([3]; S 47445 0.1 and 0.3 μM, 10 μM glutamate 20 s, 1/min): progressive potentiation of the glutamate-evoked currents from the second pulse of glutamate
% Inhibition of control specific binding ([4]; S 47445 1.0E-05 M): -21%
% Inhibition of control specific binding ([4]; S 47445 1.0E-07 M): -2%
Age-related deficit of LTP ([5]; 10 mg/kg chronic, old alert mice): significantly counteracted the deficit of LTP
Long term potentiation (LTP) versus vehicle ([5]; 10 mg/kg p.o. acute, young alert mice): significantly increased long term potentiation
Potentiating effect on glutamate-evoked current [6]: lost
% Inhibition of control specific binding ([7]; S 47445 1.0E-05 M): 0%
% Inhibition of control specific binding ([7]; S 47445 1.0E-07 M): 6%
% Inhibition of control specific binding ([8]; S 47445 1.0E-05 M): -1%
% Inhibition of control specific binding ([8]; S 47445 1.0E-07 M): 2%
Ki ([8]; read-out: Ki, glutamate binding site, n = 2): > 10 µM
% Inhibition of control specific binding ([9]; S 47445 1.0E-05 M): -5%
% Inhibition of control specific binding ([9]; S 47445 1.0E-07 M): 0%
% Inhibition of control specific binding ([10]; S 47445 1.0E-05 M): -2%
% Inhibition of control specific binding ([10]; S 47445 1.0E-07 M): -3%
EC50 [11]: 2.5 to 5.4 µM
Neurotrophic effect on BDNF proteins [12]: inducing mature form of BDNF proteins
Solubility [13]: poor solubility
% Inhibition of control specific binding ([14]; S 47445 1.0E-05 M): -6%
% Inhibition of control specific binding ([14]; S 47445 1.0E-07 M): -4%
Reduction of glutamate-induced LDH activity ([15]; glutamate 50 μM): 32.2%
Reduction of glutamate-induced LDH activity ([15]; glutamate 75 μM): 50.9%
Reduction of glutamate-induced LDH activity ([15]; glutamate 100 μM): 49.0%
% Inhibition of control specific binding ([16]; S 47445 1.0E-05 M): 21%
% Inhibition of control specific binding ([16]; S 47445 1.0E-07 M): 10%
% Inhibition of control specific binding ([17]; S 47445 1.0E-05 M): 5%
% Inhibition of control specific binding ([17]; S 47445 1.0E-07 M): 4%
% Inhibition of control specific binding ([18]; S 47445 1.0E-05 M): 0%
% Inhibition of control specific binding ([18]; S 47445 1.0E-07 M): -8%
% Inhibition of control specific binding ([19]; S 47445 1.0E-05 M): 7%
% Inhibition of control specific binding ([19]; S 47445 1.0E-07 M): -5%
Effect at kainate-evoked currents [20]: absence of effect
Leftward shift in the EC50 of glutamate [21]: about 16 fold
Amplitude of the glutamate response in presence of S 47445 ([21]; control 94.7 ± 32.8 pA): 247 ± 70 pA
% Inhibition of control specific binding ([22]; S 47445 1.0E-05 M): -10%
% Inhibition of control specific binding ([22]; S 47445 1.0E-07 M): 13%
% Inhibition of control specific binding ([23]; S 47445 1.0E-05 M): 7%
% Inhibition of control specific binding ([23]; S 47445 1.0E-07 M): 4%
% Inhibition of control specific binding ([24]; S 47445 1.0E-05 M): -12%
% Inhibition of control specific binding ([24]; S 47445 1.0E-07 M): 20%
